Test results: PubChem BioAssay (NCI)
Several values for one entry are separate records, joined by “and”; a condition that tells them apart may be missing. Equal entries are not always repeated.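 Grown in 96-well plates, cells were treated for 48 hours with each compound at five concentrations. Insufficient inhibition: endpoint recorded as highest concentration tested. The concentration for 50% growth inhibition is given as GI50. TGI denotes the concentration required for complete inhibition of growth.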

Key:
Assay in all cases: NCI-60 cell line screen, 48 h
SK-OV-3 ovarian = system: SK-OV-3 ovarian
PC-3 prostate = system: PC-3 prostate
HT29 colon = system: HT29 colon
HCT-116 colon = system: HCT-116 colon
DU-145 prostate = system: DU-145 prostate
SK-MEL-28 melanoma = system: SK-MEL-28 melanoma
OVCAR-8 ovarian = system: OVCAR-8 ovarian
OVCAR-3 ovarian = system: OVCAR-3 ovarian
HS 578T breast = system: HS 578T breast
UO-31 renal = system: UO-31 renal
NCI-H522 lung = system: NCI-H522 lung
SN12C renal = system: SN12C renal
SF-539 CNS = system: SF-539 CNS
OVCAR-4 ovarian = system: OVCAR-4 ovarian
KM12 colon = system: KM12 colon
SW-620 colon = system: SW-620 colon
MDA-N = system: MDA-N
HL-60(TB) leukemia = system: HL-60(TB) leukemia
MOLT-4 leukemia = system: MOLT-4 leukemia
HCT-15 colon = system: HCT-15 colon
M14 melanoma = system: M14 melanoma
NCI-H23 lung = system: NCI-H23 lung
SK-MEL-2 melanoma = system: SK-MEL-2 melanoma
NCI-H226 lung = system: NCI-H226 lung
NCI/ADR-RES ovarian = system: NCI/ADR-RES ovarian
A498 renal = system: A498 renal
SNB-75 CNS = system: SNB-75 CNS
SK-MEL-5 melanoma = system: SK-MEL-5 melanoma
K-562 leukemia = system: K-562 leukemia
SNB-19 CNS = system: SNB-19 CNS
OVCAR-5 ovarian = system: OVCAR-5 ovarian
MALME-3M melanoma = system: MALME-3M melanoma
786-0 renal = system: 786-0 renal
NCI-H460 lung = system: NCI-H460 lung
A549 NSCLC = system: A549 NSCLC
T-47D breast = system: T-47D breast
UACC-257 melanoma = system: UACC-257 melanoma
MCF7 breast = system: MCF7 breast
HOP-92 NSCLC = system: HOP-92 NSCLC
MDA-MB-435 = system: MDA-MB-435
CCRF-CEM leukemia = system: CCRF-CEM leukemia
HOP-62 NSCLC = system: HOP-62 NSCLC
SF-268 CNS = system: SF-268 CNS
HCC-2998 colon = system: HCC-2998 colon
ACHN renal = system: ACHN renal
IGROV1 ovarian = system: IGROV1 ovarian
U251 CNS = system: U251 CNS
TK-10 renal = system: TK-10 renal
LOX IMVI melanoma = system: LOX IMVI melanoma
RPMI-8226 leukemia = system: RPMI-8226 leukemia
CAKI-1 renal = system: CAKI-1 renal
SR leukemia = system: SR leukemia
MDA-MB-231 breast = system: MDA-MB-231 breast
UACC-62 melanoma = system: UACC-62 melanoma
BT-549 breast = system: BT-549 breast
EKVX NSCLC = system: EKVX NSCLC
COLO 205 colon = system: COLO 205 colon
SF-295 CNS = system: SF-295 CNS
RXF 393 renal = system: RXF 393 renal

Which results are given for `CCCOc1c2cc(COC3OC(CO)C(O)C(O)C3O)cc1Cc1cc(COC3OC(CO)C(O)C(O)C3O)cc(c1OCCC)Cc1cc(COC3OC(CO)C(O)C(O)C3O)cc(c1OCCC)Cc1cc(COC3OC(CO)C(O)C(O)C3O)cc(c1OCCC)C2` (stereo not given)?
GI50 (SK-OV-3 ovarian): > 100 µM and 34.9 µM; TGI (SK-OV-3 ovarian): > 100 µM; GI50 (PC-3 prostate): > 100 µM and 17.2 µM; TGI (PC-3 prostate): > 100 µM and 46.2 µM; GI50 (HT29 colon): > 100 µM and 89.8 µM and 32.6 µM; TGI (HT29 colon): > 100 µM; GI50 (HCT-116 colon): 48.6 µM and > 100 µM and 16.7 µM; TGI (HCT-116 colon): > 100 µM and 32.2 µM; GI50 (DU-145 prostate): > 100 µM and 35.1 µM; TGI (DU-145 prostate): > 100 µM; GI50 (SK-MEL-28 melanoma): > 100 µM and 14.5 µM; TGI (SK-MEL-28 melanoma): > 100 µM and 29 µM; GI50 (OVCAR-8 ovarian): > 100 µM and 18.4 µM; TGI (OVCAR-8 ovarian): > 100 µM and 42.6 µM; GI50 (OVCAR-3 ovarian): 53.2 µM and > 100 µM and 19.3 µM; TGI (OVCAR-3 ovarian): > 100 µM and 51.7 µM; TGI (HS 578T breast): > 100 µM; GI50 (UO-31 renal): > 100 µM and 28.8 µM; TGI (UO-31 renal): > 100 µM; GI50 (NCI-H522 lung): 32.4 µM and 72.8 µM and 13.7 µM; TGI (NCI-H522 lung): > 100 µM and 26.6 µM; GI50 (SN12C renal): 96.6 µM and > 100 µM and 18.5 µM; TGI (SN12C renal): > 100 µM and 43.5 µM; GI50 (SF-539 CNS): > 100 µM and 25 µM; TGI (SF-539 CNS): > 100 µM and 79.8 µM; TGI (OVCAR-4 ovarian): > 100 µM and 76.6 µM; GI50 (KM12 colon): 75.4 µM and > 100 µM and 19.3 µM; TGI (KM12 colon): > 100 µM and 39.2 µM; GI50 (SW-620 colon): 99.9 µM and > 100 µM and 15.6 µM; TGI (SW-620 colon): > 100 µM and 36.2 µM; GI50 (MDA-N): > 100 µM and 18.4 µM; TGI (MDA-N): > 100 µM and 34.8 µM; GI50 (HL-60(TB) leukemia): 27.8 µM and 78 µM and 7.86 µM; TGI (HL-60(TB) leukemia): 77.7 µM and > 100 µM and 21.6 µM; TGI (MOLT-4 leukemia): 29 µM; GI50 (HCT-15 colon): > 100 µM and 42.1 µM; TGI (HCT-15 colon): > 100 µM; GI50 (M14 melanoma): 61.1 µM and 56.1 µM and 16.2 µM; TGI (M14 melanoma): > 100 µM and 32.4 µM; GI50 (NCI-H23 lung): 69.6 µM and 71 µM and 21.2 µM; TGI (NCI-H23 lung): > 100 µM and 52.8 µM; GI50 (SK-MEL-2 melanoma): 57 µM and 96.4 µM and 15.7 µM; TGI (SK-MEL-2 melanoma): > 100 µM and 35.6 µM; GI50 (NCI-H226 lung): 59.2 µM and > 100 µM and 17.7 µM; TGI (NCI-H226 lung): > 100 µM and 40.1 µM; TGI (NCI/ADR-RES ovarian): > 100 µM; GI50 (A498 renal): 88.4 µM and > 100 µM and 16.3 µM; TGI (A498 renal): > 100 µM and 42.5 µM; GI50 (SNB-75 CNS): 18.5 µM and 55.4 µM and 22.2 µM; TGI (SNB-75 CNS): 93.7 µM and > 100 µM and 62.8 µM; GI50 (SK-MEL-5 melanoma): 96.7 µM and > 100 µM and 17.1 µM; TGI (SK-MEL-5 melanoma): > 100 µM and 32.7 µM; GI50 (K-562 leukemia): 36.7 µM and 62.2 µM and 15.8 µM; TGI (K-562 leukemia): > 100 µM and 32.5 µM; GI50 (SNB-19 CNS): 66.1 µM and > 100 µM and 17.5 µM; TGI (SNB-19 CNS): > 100 µM and 32.1 µM; GI50 (OVCAR-5 ovarian): 41.8 µM and > 100 µM and 22 µM; TGI (OVCAR-5 ovarian): > 100 µM and 55.2 µM; TGI (MALME-3M melanoma): > 100 µM; GI50 (786-0 renal): > 100 µM and 28.1 µM; TGI (786-0 renal): > 100 µM and 89.8 µM; GI50 (NCI-H460 lung): 56.9 µM and > 100 µM and 30.3 µM; TGI (NCI-H460 lung): > 100 µM and 92.3 µM; GI50 (A549 NSCLC): 49.5 µM and > 100 µM and 26.9 µM; TGI (A549 NSCLC): > 100 µM and 94.4 µM; GI50 (T-47D breast): 34.3 µM and 69.9 µM and 29 µM; TGI (T-47D breast): > 100 µM; GI50 (UACC-257 melanoma): 67.1 µM and > 100 µM and 33.6 µM; TGI (UACC-257 melanoma): > 100 µM; GI50 (MCF7 breast): 53.7 µM and > 100 µM and 19.4 µM; TGI (MCF7 breast): > 100 µM and 44.3 µM; TGI (HOP-92 NSCLC): > 100 µM; GI50 (MDA-MB-435): 57.2 µM and > 100 µM and 20.6 µM; TGI (MDA-MB-435): > 100 µM and 41.1 µM; GI50 (CCRF-CEM leukemia): 7.52 µM and 17.6 µM; TGI (CCRF-CEM leukemia): > 100 µM and 36.5 µM; GI50 (HOP-62 NSCLC): > 100 µM and 29.2 µM; TGI (HOP-62 NSCLC): > 100 µM and 93.7 µM; GI50 (SF-268 CNS): > 100 µM and 80.4 µM and 17.5 µM; TGI (SF-268 CNS): > 100 µM and 33.3 µM; TGI (HCC-2998 colon): > 100 µM; GI50 (ACHN renal): > 100 µM and 23.9 µM; TGI (ACHN renal): > 100 µM and 63.4 µM; GI50 (IGROV1 ovarian): 60.2 µM and > 100 µM and 15.9 µM; TGI (IGROV1 ovarian): > 100 µM and 40.8 µM; GI50 (U251 CNS): 49.3 µM and 48.5 µM and 16.6 µM; TGI (U251 CNS): > 100 µM and 31.6 µM; GI50 (TK-10 renal): > 100 µM and 46.8 µM; TGI (TK-10 renal): > 100 µM; GI50 (LOX IMVI melanoma): > 100 µM and 58.6 µM and 17.6 µM; TGI (LOX IMVI melanoma): > 100 µM and 31.4 µM; TGI (RPMI-8226 leukemia): > 100 µM; GI50 (CAKI-1 renal): > 100 µM and 25 µM; TGI (CAKI-1 renal): > 100 µM and 64.8 µM; GI50 (SR leukemia): 29.9 µM and 13.8 µM; TGI (SR leukemia): 48.9 µM and 29.5 µM; GI50 (MDA-MB-231 breast): 45.2 µM and > 100 µM and 17 µM; TGI (MDA-MB-231 breast): > 100 µM and 34.1 µM; GI50 (UACC-62 melanoma): 90.7 µM and > 100 µM and 16 µM; TGI (UACC-62 melanoma): > 100 µM and 35 µM; GI50 (BT-549 breast): > 100 µM and 72.8 µM and 21.8 µM; TGI (BT-549 breast): > 100 µM and 36.4 µM; GI50 (EKVX NSCLC): > 100 µM and 35.5 µM; TGI (EKVX NSCLC): > 100 µM; GI50 (COLO 205 colon): 38.9 µM and 35.9 µM and 13.1 µM; TGI (COLO 205 colon): > 100 µM and 26.1 µM; GI50 (SF-295 CNS): 67.5 µM and 84.6 µM and 17.4 µM; TGI (SF-295 CNS): > 100 µM and 35.7 µM; GI50 (RXF 393 renal): 14.2 µM and 23.9 µM; TGI (RXF 393 renal): 33.9 µM and 87 µM and 77.4 µM
